{
  "source": "patent US12215085B2",
  "about": "(priority 2019, dated 2025)",
  "test_system": "rats with common carotid artery occlusion-induced vascular dementia",
  "test": "Water maze test, common carotid artery occlusion-induced vascular dementia rats",
  "type": "in vivo, rat",
  "conditions": "for adopted strategy for reaching the platform (the peripheral type and the random type %) / orientation angle for reaching the platform / speed for reaching the platform / swimming path length for reaching the platform / time for reaching the platform: succinate; for orientation angle for reaching the platform / speed for reaching the platform / swimming path length for reaching the platform / time for reaching the platform: x ± s",
  "description": "A rat blood vessel dementia model was made according to the references [ZHAO Xian-lin, FANG Xiu-bin, LI Dong-pei. Establishment of Vascular Dementia Model in Rats, J Chin Med Univ, 2002, 31 (3): 166-168; WANG Yong-yan, Zhang Bo-li, Editor-in-chief. Modern Chinese Medicine Clinic and Research on Vascular Dementia, People's Medical Publishing House, October 2003, First Version 214]: Chloral hydrate 0.4 g/kg was intraperitoneally injected for anesthetizing rats, and bilateral common carotid arteries were isolated and ligated. The animals were fed for 16 weeks, divided into groups on the last 7 days, and administered. The normal control group and the model group were administrated through the intragastric route with distilled water by 0.5 ml/100 g, the positive control group was administrated through the intragastric route with donepezil hydrochloride by 1.75 mg/kg (equivalent to 3.85 times the clinical daily dosage of 5 mg/70 kg), the low, medium and high-dose groups of Crystal Form A of octahydroaminoacridine succinate were administrated through the intragastric route with Crystal Form A of octahydroaminoacridine succinate by 0.7, 1.4 and 2.8 mg/kg (equivalent to 0.96, 1.92 and 3.85 times the clinical daily dosage of 8 mg/70 kg). The water maze test and the step-down test were carried out after continuous administration for 7 days, and the administration was continued during the test period. The water maze test was continuously performed for 7 days, in the first 6 days, in four different water entry points of quadrants 1, 2, 3 and 4, the time, the swimming path length, the orientation angle and the average speed of the rat reaching the platform were measured, meanwhile, the strategy for reaching the platform adopted by rats was observed, on the 7th day, the platform was removed, the number of rats crossing the platform in 2 minutes, the residence time in the platform area, the residence time in the platform quadrants, the percentage of the swimming path length in the platform area quadrants to the total swimming path length, the average speed and the orientation angle were measured. After the water maze test was finished, the step-down test was performed, and the number of electric shocks (or called as the error number) received by each rat within 5 minutes was recorded as the learning performance. The test was performed again after 24 hours, namely, the memory retention test, and the latent period for stepping-down the platform for the first time and the error number in five minutes were recorded. After the step-down test was finished, the brain was taken quickly for pathological examination, and the pathological changes of the hippocampus and the cortex were observed.",
  "key": {"[1]": {"conditions": "Day 1, 0.7 mg/kg intragastric, 0.7 mg/kg"}, "[2]": {"conditions": "Day 1, 1.4 mg/kg intragastric, 1.4 mg/kg"}, "[3]": {"conditions": "Day 1, 2.8 mg/kg intragastric, 2.8 mg/kg"}, "[4]": {"conditions": "Day 2, 0.7 mg/kg intragastric, 0.7 mg/kg"}, "[5]": {"conditions": "Day 2, 1.4 mg/kg intragastric, 1.4 mg/kg"}, "[6]": {"conditions": "Day 2, 2.8 mg/kg intragastric, 2.8 mg/kg"}, "[7]": {"conditions": "Day 3, 0.7 mg/kg intragastric, 0.7 mg/kg"}, "[8]": {"conditions": "Day 3, 1.4 mg/kg intragastric, 1.4 mg/kg"}, "[9]": {"conditions": "Day 3, 2.8 mg/kg intragastric, 2.8 mg/kg"}, "[10]": {"conditions": "Day 4, 0.7 mg/kg intragastric, 0.7 mg/kg"}, "[11]": {"conditions": "Day 4, 1.4 mg/kg intragastric, 1.4 mg/kg"}},
  "note": "Marks after values point to notes of the source that are not given here.",
  "data": [
    {"smiles": "Nc1c2c(nc3c1CCCC3)CCCC2.O=C(O)CCC(=O)O", "note": "[Crystal Form A, 9-amino-1,2,3,4,5,6,7,8-octahydroacridine succinate]", "values": [
      {"measurement": "swimming path length for reaching the platform vs model group", "setting": "1.4 mg/kg, Day 4, P<0.05", "value": "obviously shortened"},
      {"measurement": "latent period for reaching the platform vs model group", "setting": "1.4 mg/kg, Day 4 to Day 6, P<0.05 or P<0.01", "value": "obviously shortened"},
      {"measurement": "swimming path length for reaching the platform vs model group", "setting": "2.8 mg/kg, Day 3, P<0.05", "value": "obviously shortened"},
      {"measurement": "latent period for reaching the platform vs model group", "setting": "2.8 mg/kg, Day 3 to Day 6, P<0.05 or P<0.01", "value": "obviously shortened"},
      {"measurement": "orientation angle and swimming speed vs model group", "setting": "0.7, 1.4 and 2.8 mg/kg, Day 1 to Day 6", "value": "not obviously changed"},
      {"measurement": "residence time in the platform quadrants, average speed, orientation angle and percentage of the swimming path length in the platform area quadrants to the total swimming path length vs model group", "setting": "0.7, 1.4 and 2.8 mg/kg, Day 7", "value": "not obviously changed"},
      {"measurement": "number of rats crossing the platform within 2 minutes vs model group", "setting": "1.4 and 2.8 mg/kg, Day 7, P<0.05", "value": "obviously increased"},
      {"measurement": "conversion from the peripheral type or the random type to the tendency type or the linear type in the strategy for looking for the platform", "setting": "1.4 and 2.8 mg/kg, P<0.05 or P<0.01", "value": "obviously increased"},
      {"measurement": "adopted strategy for reaching the platform (the peripheral type and the random type %)", "setting": "[1]", "value": 75.00, "unit": "%"},
      {"measurement": "orientation angle for reaching the platform", "setting": "[1]", "value": "64.44 ± 24.84", "unit": "°"},
      {"measurement": "speed for reaching the platform", "setting": "[1]", "value": "21.68 ± 6.14", "unit": "cm/s"},
      {"measurement": "swimming path length for reaching the platform", "setting": "[1]", "value": "1250.31 ± 599.61", "unit": "cm"},
      {"measurement": "time for reaching the platform", "setting": "[1]", "value": "60.40 ± 30.23", "unit": "s"},
      {"measurement": "adopted strategy for reaching the platform (the peripheral type and the random type %)", "setting": "[2]", "value": 92.50, "unit": "%"},
      {"measurement": "orientation angle for reaching the platform", "setting": "[2]", "value": "63.00 ± 21.34", "unit": "°"},
      {"measurement": "speed for reaching the platform", "setting": "[2]", "value": "22.93 ± 7.28", "unit": "cm/s"},
      {"measurement": "swimming path length for reaching the platform", "setting": "[2]", "value": "1491.17 ± 529.46", "unit": "cm"},
      {"measurement": "time for reaching the platform", "setting": "[2]", "value": "75.55 ± 32.44", "unit": "s"},
      {"measurement": "adopted strategy for reaching the platform (the peripheral type and the random type %)", "setting": "[3]", "value": 87.50, "unit": "%"},
      {"measurement": "orientation angle for reaching the platform", "setting": "[3]", "value": "75.34 ± 20.00", "unit": "°"},
      {"measurement": "speed for reaching the platform", "setting": "[3]", "value": "23.52 ± 5.71", "unit": "cm/s"},
      {"measurement": "swimming path length for reaching the platform", "setting": "[3]", "value": "1555.98 ± 522.10", "unit": "cm"},
      {"measurement": "time for reaching the platform", "setting": "[3]", "value": "69.25 ± 15.97", "unit": "s"},
      {"measurement": "adopted strategy for reaching the platform (the peripheral type and the random type %)", "setting": "[4]", "value": 86.00, "unit": "%"},
      {"measurement": "orientation angle for reaching the platform", "setting": "[4]", "value": "52.13 ± 14.28", "unit": "°"},
      {"measurement": "speed for reaching the platform", "setting": "[4]", "value": "23.68 ± 5.10", "unit": "cm/s"},
      {"measurement": "swimming path length for reaching the platform", "setting": "[4]", "value": "1368.59 ± 636.46", "unit": "cm"},
      {"measurement": "time for reaching the platform", "setting": "[4]", "value": "55.04 ± 31.39", "unit": "s"},
      {"measurement": "adopted strategy for reaching the platform (the peripheral type and the random type %)", "setting": "[5]", "value": 65.00, "unit": "%"},
      {"measurement": "orientation angle for reaching the platform", "setting": "[5]", "value": "48.91 ± 15.52", "unit": "°"},
      {"measurement": "speed for reaching the platform", "setting": "[5]", "value": "29.02 ± 6.70", "unit": "cm/s"},
      {"measurement": "swimming path length for reaching the platform", "setting": "[5]", "value": "917.85 ± 346.36", "unit": "cm"},
      {"measurement": "time for reaching the platform", "setting": "[5]", "value": "38.71 ± 18.28", "unit": "s"},
      {"measurement": "adopted strategy for reaching the platform (the peripheral type and the random type %)", "setting": "[6]", "value": 82.50, "unit": "%"},
      {"measurement": "orientation angle for reaching the platform", "setting": "[6]", "value": "57.20 ± 22.99", "unit": "°"},
      {"measurement": "speed for reaching the platform", "setting": "[6]", "value": "28.32 ± 7.08", "unit": "cm/s"},
      {"measurement": "swimming path length for reaching the platform", "setting": "[6]", "value": "1025.55 ± 559.44", "unit": "cm"},
      {"measurement": "time for reaching the platform", "setting": "[6]", "value": "40.76 ± 23.88", "unit": "s"},
      {"measurement": "adopted strategy for reaching the platform (the peripheral type and the random type %)", "setting": "[7]", "value": 66.67, "unit": "%"},
      {"measurement": "orientation angle for reaching the platform", "setting": "[7]", "value": "57.18 ± 14.54", "unit": "°"},
      {"measurement": "speed for reaching the platform", "setting": "[7]", "value": "26.27 ± 6.15", "unit": "cm/s"},
      {"measurement": "swimming path length for reaching the platform", "setting": "[7]", "value": "698.11 ± 448.85", "unit": "cm"},
      {"measurement": "time for reaching the platform", "setting": "[7]", "value": "29.31 ± 15.94", "unit": "s"},
      {"measurement": "adopted strategy for reaching the platform (the peripheral type and the random type %)", "setting": "[8]", "value": "65.00* %"},
      {"measurement": "orientation angle for reaching the platform", "setting": "[8]", "value": "53.59 ± 14.56", "unit": "°"},
      {"measurement": "speed for reaching the platform", "setting": "[8]", "value": "25.25 ± 5.42", "unit": "cm/s"},
      {"measurement": "swimming path length for reaching the platform", "setting": "[8]", "value": "804.05 ± 351.90", "unit": "cm"},
      {"measurement": "time for reaching the platform", "setting": "[8]", "value": "30.21 ± 14.13", "unit": "s"},
      {"measurement": "adopted strategy for reaching the platform (the peripheral type and the random type %)", "setting": "[9]", "value": "60.00* %"},
      {"measurement": "orientation angle for reaching the platform", "setting": "[9]", "value": "41.65 ± 17.28", "unit": "°"},
      {"measurement": "speed for reaching the platform", "setting": "[9]", "value": "24.59 ± 6.25", "unit": "cm/s"},
      {"measurement": "swimming path length for reaching the platform", "setting": "[9]", "value": "512.17 ± 265.98", "unit": "cm"},
      {"measurement": "time for reaching the platform", "setting": "[9]", "value": "21.75 ± 9.58", "unit": "s"},
      {"measurement": "adopted strategy for reaching the platform (the peripheral type and the random type %)", "setting": "[10]", "value": 69.00, "unit": "%"},
      {"measurement": "orientation angle for reaching the platform", "setting": "[10]", "value": "55.89 ± 20.65", "unit": "°"},
      {"measurement": "speed for reaching the platform", "setting": "[10]", "value": "25.53 ± 8.12", "unit": "cm/s"},
      {"measurement": "swimming path length for reaching the platform", "setting": "[10]", "value": "838.00 ± 799.29", "unit": "cm"},
      {"measurement": "time for reaching the platform", "setting": "[10]", "value": "35.34 ± 35.48", "unit": "s"},
      {"measurement": "adopted strategy for reaching the platform (the peripheral type and the random type %)", "setting": "[11]", "value": "42.50** %"},
      {"measurement": "orientation angle for reaching the platform", "setting": "[11]", "value": "50.23 ± 20.86", "unit": "°"},
      {"measurement": "speed for reaching the platform", "setting": "[11]", "value": "28.54 ± 9.09", "unit": "cm/s"},
      {"measurement": "swimming path length for reaching the platform", "setting": "[11]", "value": "461.53 ± 216.01", "unit": "cm"},
      {"measurement": "time for reaching the platform", "setting": "[11]", "value": "19.79 ± 10.95", "unit": "s"},
      {"measurement": "adopted strategy for reaching the platform (the peripheral type and the random type %)", "setting": "Day 4, 2.8 mg/kg intragastric, 2.8 mg/kg", "value": "62.50* %"}
    ]}
  ]
}
